“And” between values parts separate entries of the source, which are not always exact repeats. Equal values may be shown once. Read-outs that look alike come from different tables or passages of the source.
Key:
[1] = biological target: serotonin re-uptake transport protein (Rattus norvegicus, UniProt P31652); test: [3H]-citalopram binding assay (serotonin re-uptake inhibition assay)
Protocol: (§1) The GABA binding assay was carried out according to a previously published method, with modifications. To a suspension of rat brain cortex (500 µL) was added test solution (25 µL) and [^3H]-flumazenil (25 µL, Ro 15-1788, Perkin-Elmer Life Science) to 0.5 nM final concentration in the assay. The suspension was mixed and incubated for 40 min on ice and poured directly onto glass fiber filters (Adventic, GC-50) under suction, in an ice-bath, followed by washing with ice-cold Tris-citrate buffer. The amount of radioactivity was determined by liquid scintillation counting. Non-specific binding was determined using diazepam (1 µM final concentration in the assay) and flumazenil was used as positive control. Specific binding was calculated as total binding minus non-specific binding. All experiments were done in triplicate. The serotonin re-uptake inhibition assay was performed according to previously described methods.

[2] = biological target: benzodiazepine site on the GABAA receptor; test: [3H]-flumazenil binding assay (GABA-benzodiazepine binding assay); parameters: species or system rat; details: for Ki: as worded in text b6; for IC50: rat brain cortex, 0.5 nM [3H]-flumazenil, mean ± standard error, n.d. = not detected in tested concentrations below 10 mM; for affinity for the benzodiazepine site (in words): [3H]-flumazenil binding assay
Protocol: as §1

MES seizures in mice = tested on: MES seizures in mice; parameters: method as in doi:10.1016/S0165-7208(06)80055-3; details: cited from earlier work
GABAA receptor = tested on: GABAA receptor; parameters: method as in PMID 1332016; details: cited from earlier work
[3] = mean ± standard error, n.d. = not detected in tested concentrations below 10 mM, read-out: [3H]-citalopram binding assay IC50
[4] = read-out: Ki, serotonin re-uptake transport protein

Sequence of serotonin re-uptake transport protein (P31652 whole entry): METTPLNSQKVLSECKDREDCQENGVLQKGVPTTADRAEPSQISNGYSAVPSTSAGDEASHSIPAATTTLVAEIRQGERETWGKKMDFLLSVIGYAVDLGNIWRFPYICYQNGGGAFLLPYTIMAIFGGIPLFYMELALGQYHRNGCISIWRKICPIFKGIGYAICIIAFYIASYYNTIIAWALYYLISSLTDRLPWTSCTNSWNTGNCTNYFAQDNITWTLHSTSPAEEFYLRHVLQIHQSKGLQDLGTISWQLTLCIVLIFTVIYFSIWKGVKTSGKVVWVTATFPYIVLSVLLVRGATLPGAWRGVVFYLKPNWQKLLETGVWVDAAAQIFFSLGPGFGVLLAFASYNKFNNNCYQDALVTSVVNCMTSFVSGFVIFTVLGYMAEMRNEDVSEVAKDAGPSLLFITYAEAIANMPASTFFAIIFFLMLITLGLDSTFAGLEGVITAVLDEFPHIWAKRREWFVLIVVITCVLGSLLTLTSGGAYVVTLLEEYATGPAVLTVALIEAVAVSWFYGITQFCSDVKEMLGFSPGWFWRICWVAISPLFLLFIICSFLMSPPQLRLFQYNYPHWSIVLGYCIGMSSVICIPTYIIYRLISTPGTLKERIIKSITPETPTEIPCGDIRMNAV

Work on `O=C(/C=C/CCc1ccc2c(c1)OCO2)N1CCCCC1` [Compound 2, 4,5-Dihydropiperine] yielded an IC50 [1, 3] of 2980 ± 1630 µM, an IC50 [1, 4] of 2980 ± 1630 µM and a Ki [2] of 1054 ± 4 µM. The IC50 [2] was 1000 µM and 1050 µM.
For `O=C(CCc1ccc2c(c1)OCO2)N1CCCCC1` [Compound 6, 3-Benzo[1,3]dioxol-5-yl-1-piperidin-1-yl-propan-1-one], the “protection against MES induced seizures” value (MES seizures in mice) is listed as “protection” and the “affinity for the benzodiazepine site (in words)” value (from here on “affinity”) [2] is listed as “lack of affinity”.
`O=C(/C=C/CCc1cc2c(cc1Cl)OCO2)N1CCCCC1` [Compound 8, trans-5-(6-Chlorobenzo[1,3]dioxol-5-yl)-1-(piperidin-1-yl)pent-2-en-1-one] gave an IC50 [1, 3] of 2690 ± 1390 µM and an IC50 [1, 4] of 2690 ± 1390 µM.
For `COC1=CC(=O)O[C@@H](/C=C/c2ccc3c(c2)OCO3)C1` [methysticin, Methysticin], the “association of GABAA receptor activation with the benzodiazepine binding site” value (GABAA receptor) is listed as “not to be associated with the benzodiazepine binding site”.
`O=C(CCCCc1ccc2c(c1)OCO2)N1CCCCC1` [Compound 4, Tetrahydropiperidine] gave an IC50 [1, 3] of 585 ± 1520 µM.
In the case of `CC(C)NC(=O)CCc1ccc2c(c1)OCO2` [Compound 10, 3-Benzo[1,3]dioxol-5-yl-N-isopropyl-propionamide], the “protection against MES induced seizures” value (MES seizures in mice) is given as “protection” and the “affinity” value [2] is given as “lack of affinity”.
In the case of `O=C(/C=C/C=C/c1ccc2c(c1)OCO2)N1CCCCC1` [Compound 1, Piperine], the Ki [2] is reported as 1175 ± 3 µM and the IC50 [2] is reported as 1200 µM and 1180 µM.
With `O=C(/C=C/c1ccc2c(c1)OCO2)N1CCCCC1` [Compound 5, Antiepilepsirine] the “affinity” value [2] was “no affinity”.

Reference: article PMC6255099, “Amides from Piper capense with CNS Activity – A Preliminary SAR Analysis” (Molecules, 2009)
